Read-outs that look alike come from different tables or passages of the source.
Columns and labels:
[1] = test system: p53 knock out Colon 26 clones; test: p53 KO Colon26 model; type: in vivo, mouse
Description: p53 knock out Colon 26 Clones were grown in the presence of 1 μM HDM201 and screened for p53 expression by western blot, loading 40 μg total protein/sample, using an anti p53 antibody (Cell Signaling CST #2524). p53 negative clones were identified, grown without HDM201 for 4 days and then re-treated with 1 μM HDM201 for 24 hours, along with Colon26 parental cells, to monitor p53 pathway’ response. p53 and p21 changes were monitored by western blot and an 84 gene qPCR array was used to additionally confirm pathway activity (RT2 Profiler PCR Array p53 pathway, Cat No. 330231 PAMM-027ZA Qiagen). Select clones were also submitted for RNASeq analysis.
There was no additional benefit observed when the PD-1/PD-L1 axis was blocked (FIG. 30).

[2] = type: in vivo
Text: The endpoint for the primary objective is the incidence of Dose Limiting Toxicities (DLTs) during the first cycle of treatment. Although the primary analysis estimates the MTD based on DLT rate, the final preferred dose determination utilizes additional data beyond cycle 1 DLT rate, including later cycle tolerability, PK, PD and anti-tumor activity.
Therefore, dose limiting hematologic toxicities occurring in cycle 2 were also factored into dose escalation decisions during the course of the study, using a non-binding sensitivity model. Table Ex2.4 summarizes the number of dose limiting toxicities during cycle 1 and dose limiting hematologic toxicities in cycle 2 across all the regimens evaluated in solid tumors.
This study utilizes a Bayesian logistic regression model (BLRM) to support dose escalation and estimate the MTD and/or determine the preferred dose for HDM201. The BLRM with escalation with overdose control (EWOC) enables incorporation of available prior information and updates the model parameters based upon new information about observed dose limiting toxicities (DLT) seen in the clinical study. During the course of the dose escalation for regimen 1A and 1B, DLT incidence has been used to update the model and support the decision for the next dose. When during the course of the study it became apparent that HDM201 induced bone marrow toxicity occurred predominantly during cycle 2, a non-binding sensitivity model including cycle 1 DLT and hematologic dose limiting AEs in cycle 2 (weighting all cytopenias equally) was used to guide dose escalation/RDE determinations. Additionally, decisions were at all times based on a synthesis of relevant data available from all dose levels evaluated in the study including low grade toxicities, PK, and PD data (when available) from evaluable patients.

[3] = type: in vivo, human
Description: Pharmacokinetic data have been evaluated throughout the course of the dose escalation. Two HDM201 drug variants have been evaluated during the course of the study (refer to the protocol for further details). […] Furthermore, an integrated analysis of all available HDM201 concentrations was conducted using a population approach. The PK of HDM201 was best described by a 1-compartment PK model with a delayed zero- and first-order absorption process, and a linear clearance. Body weight was identified as a statistically significant covariate on apparent central volume of distribution (Vc/F), in which Vc/F increased with increasing body weight.
(§1) To further support the preferred dose for HDM201, compartmental PK modeling was used to estimate the individual average concentration per cycle for the 9 patients treated at 120 mg on regimen 1B (FIG. 15). For the majority of patients (7 out of 9), the estimated average drug concentrations per cycle were near or above the most conservative average tumor stasis concentration of ˜41 ng/mL per cycle determined from PKPD modeling of preclinical data (human SJSA-1 xenograft rat model).
(§2) Compartmental population PK modeling of NVP-HDM201 was used to estimate the individual average plasma concentration for Cycle 1 and to allow comparison with preclinical average concentration for tumor stasis derived by PK/PD tumor growth modeling. […] The dashed line at concentration of ≈19 ng/mL represents average tumor stasis determined from PK/PD modeling of preclinical data from a liposarcoma (HSAX2655) patient-derived xenograft rat model.

[4] = test system: human HSAX2655 (liposarcoma) PDX; test: TGI PK/PD modelling, human HSAX2655 (liposarcoma) PDX rat; type: in vivo
Description: as §2

[5] = test system: human SJSA-1 (osteosarcoma) xenograft; test: TGI PK/PD modelling, human SJSA-1 (osteosarcoma) xenograft rat; type: in vivo; details: human SJSA-1 xenograft rat; for Average concentration for tumor stasis: TGI PK/PD modelling
Description: as §1, §2

[6] = test system: AH1-specific CD8+ T cells; test: Anti-tumor memory T cell responses: IFN-γ ELISPOT with AH1 peptide and H2Ld-AH1 dextramers on splenocytes; type: cell-based, mouse
Text: Consistent with this, we observed an increase in frequency of AH1-specific CD8^+ T cells in spleens of mice treated with HDM201 or combination of HDM201 with anti-PD1 antibody induced responders as detected by H2Ld-AH1 dextramers. (FIGS. 28 and 29).

[7] = 1A (d 1 Q3 weeks) 12.5 mg (n = 1)
[8] = 1B (d 1, d 8 of 4 w cycle) 120 mg (n = 9)
[9] = 2A (2 weeks on/2 weeks off) 1 mg (n = 1)
[10] = 2C (1 week on/3 weeks off) 15 mg (n = 8)

With `COc1ncc(-c2nc3c(n2C(C)C)[C@H](c2ccc(Cl)cc2)N(c2cc(Cl)cn(C)c2=O)C3=O)c(OC)n1` [HDM201, (S)-5-(5-Chloro-1-methyl-2-oxo-1,2-dihydro-pyridin-3-yl)-6-(4-chloro-phenyl)-2-(2,4-dimethoxy-pyrimidin-5-yl)-1-isopropyl-5,6-dihydro-1H-pyrrolo[3,4-d]imidazol-4-one] the tumor growth inhibition [1] was “not able to inhibit tumor growth”, the “DLTs (cycle 1)” value ([2]; 1A 25 mg (n = 1)) was 0 and the “Hematologic dose limiting toxicities (cycle 2)” value ([2]; 1A 25 mg (n = 1)) was 0. The “DLTs (cycle 1)” value ([2]; 1A 50 mg (n = 4)) was 0, the “Hematologic dose limiting toxicities (cycle 2)” value ([2]; 1A 50 mg (n = 4)) was 1 and the “DLTs (cycle 1)” value ([2]; 1A 100 mg (n = 4)) was 0. The “Hematologic dose limiting toxicities (cycle 2)” value ([2]; 1A 100 mg (n = 4)) was 0, the “DLTs (cycle 1)” value ([2]; 1A 200 mg (n = 5)) was 0 and the “Hematologic dose limiting toxicities (cycle 2)” value ([2]; 1A 200 mg (n = 5)) was 1. For the same compound, the “DLTs (cycle 1)” value ([2]; 1A 250 mg (n = 6)) was 0, the “Hematologic dose limiting toxicities (cycle 2)” value ([2]; 1A 250 mg (n = 6)) was 1 and the “DLTs (cycle 1)” value ([2]; 1A 350 mg (n = 5)) was 2. For the same compound, the “Hematologic dose limiting toxicities (cycle 2)” value ([2]; 1A 350 mg (n = 5)) was 2, the “DLTs (cycle 1)” value [2, 7] was 0 and the “Hematologic dose limiting toxicities (cycle 2)” value [2, 7] was 0. For the same compound, the “DLTs (cycle 1)” value ([2]; 1B 150 mg (n = 8)) was 1, the “Hematologic dose limiting toxicities (cycle 2)” value ([2]; 1B 150 mg (n = 8)) was 1 and the “DLTs (cycle 1)” value ([2]; 1B 200 mg (n = 3)) was 0. For the same compound, the “DLTs (cycle 1)” value [2, 8] was 0, the “Hematologic dose limiting toxicities (cycle 2)” value [2, 8] was 2 and the “DLTs (cycle 1)” value ([2]; 2A 2 mg (n = 2)) was 0. For the same compound, the “Hematologic dose limiting toxicities (cycle 2)” value ([2]; 2A 2 mg (n = 2)) was 0, the “DLTs (cycle 1)” value ([2]; 2A 4 mg (n = 4)) was 0 and the “Hematologic dose limiting toxicities (cycle 2)” value ([2]; 2A 4 mg (n = 4)) was 0. For the same compound, the “DLTs (cycle 1)” value ([2]; 2A 7.5 mg (n = 4)) was 0, the “Hematologic dose limiting toxicities (cycle 2)” value ([2]; 2A 7.5 mg (n = 4)) was 0 and the “DLTs (cycle 1)” value ([2]; 2A 15 mg (n = 4)) was 0. For the same compound, the “Hematologic dose limiting toxicities (cycle 2)” value ([2]; 2A 15 mg (n = 4)) was 1, the “DLTs (cycle 1)” value ([2]; 2A 20 mg (n = 5)) was 0 and the “Hematologic dose limiting toxicities (cycle 2)” value ([2]; 2A 20 mg (n = 5)) was 4. For the same compound, the “DLTs (cycle 1)” value [2, 9] was 0, the “Hematologic dose limiting toxicities (cycle 2)” value [2, 9] was 0 and the “DLTs (cycle 1)” value ([2]; 2C 20 mg (n = 6)) was 0. The “Hematologic dose limiting toxicities (cycle 2)” value ([2]; 2C 20 mg (n = 6)) was 0, the “DLTs (cycle 1)” value ([2]; 2C 25 mg (n = 5)) was 2 and the “Hematologic dose limiting toxicities (cycle 2)” value ([2]; 2C 25 mg (n = 5)) was 0. The “DLTs (cycle 1)” value [2, 10] was 0, the “Hematologic dose limiting toxicities (cycle 2)” value [2, 10] was 1 and the “Median DLT rate, per protocol analysis” value ([2]; BLRM, regimen 1B 120 mg) was 3.5%. For the same compound, the “Median DLT rate, sensitivity analysis” value ([2]; BLRM, regimen 1B 120 mg) was 25.7%, the “RDE for patients with solid tumors” value ([2]; D1 and D8 of each 28 day cycle) was 120 mg and the “DLTs (cycle 1), Total” value ([2]; regimen 1A, N = 26) was 2. The “Hematologic dose limiting toxicities (cycle 2), Total” value ([2]; regimen 1A, N = 26) was 5, the “dose up to which BLRM (cycle 1 DLT events) supported escalation” value ([2]; regimen 1B) was “up to 400 mg” and the “events of prolonged neutropenia meeting DLT criteria” value ([2]; regimen 1B 150 mg, onset on day 22, lasting 18 days) was “One”. For the same compound, the “DLTs (cycle 1), Total” value ([2]; regimen 1B, N = 20) was 1, the “Hematologic dose limiting toxicities (cycle 2), Total” value ([2]; regimen 1B, N = 20) was 3 and the “DLTs (cycle 1), Total” value ([2]; regimen 2A, N = 20) was 0. For the same compound, the “Hematologic dose limiting toxicities (cycle 2), Total” value ([2]; regimen 2A, N = 20) was 5, the “DLTs (cycle 1), Total” value ([2]; regimen 2C, N = 19) was 2 and the “Hematologic dose limiting toxicities (cycle 2), Total” value ([2]; regimen 2C, N = 19) was 1. For the same compound, the “Dose-limiting toxicities (type)” value ([2]; typically occurring during Cycle 2) was “neutropenia and thrombocytopenia”, the steady-state reached ([3]; daily dosing) was ≤ 8 days and the “median time to reach maximum plasma concentrations (Tmax)” value ([3]; dose range 2 to 350 mg) was 2 to 5.8 h. The “accumulation upon daily dosing” value ([3]; human, in vivo) was “limited accumulation”, the “patients with estimated average drug concentration per cycle near or above ~41 ng/mL” value ([3]; regimen 1B 120 mg, compartmental PK modeling) was 7 out of 9 and the “Average concentration for tumor stasis” value [4] was 19 ng/mL. The “Average concentration for tumor stasis” value ([4]; listed as NVP-HDM201) was “≈ 19 ng/mL”, the “Average concentration for tumor stasis” value [5] was ~41 ng/mL and the “Average concentration for tumor stasis” value ([5]; listed as NVP-HDM201) was “≈ 41 ng/mL”. For the same compound, the “average concentration for 95% tumor regression” value [5] was 120 ng/mL, the “average concentration for 95% tumor regression” value ([5]; listed as NVP-HDM201) was 125 ng/mL and the “frequency of AH1-specific CD8+ T cells in spleens (H2Ld-AH1 dextramers)” value ([6]; responder mice) was “increase”. For the same compound, the “antigen-specific production of IFN-γ by T cells (ELISPOT)” value ([6]; splenocytes of responder mice stimulated with AH1 peptide) was “detected in all responders”.

Source: US20210363254A1, “PHARMACEUTICAL COMBINATIONS” (Novartis AG, priority 2018, published 2021)
